test: Kinetic solubility of PP-001 salts in FaSSIF (HPLC); format: physicochemical; conditions: 4 mL FaSSIF, 25° C., target 2 mg/mL
Description: Approximately 8 mg (calculated as freebase) of each salt was weighed out into each glass vial and then 4 ml of FaSSIF was added (target concentration was 2 mg/mL). The sample was kept stirring on a magnetic stirrer at a speed of I 00 RPM under 25° C. Then at the time points of initial, 0.5 hr, 1 hr, 2 hrs and 24 hrs, 0.5 mL of sample solution was transferred into 1.5 mL centrifugation tube and centrifuged at 12,000 RPM for 10 min. The supernatant was diluted by 50% ACN suitable and analyzed by HPLC.
An HPLC method of testing solubility was performed as follows in Table A: […]

| Molecule | Appearance after stirring for 24 hours | Final pH |
| --- | --- | --- |
| [K+] [Potassium] | clear solution | 6.50 |
| Sodium | clear solution |  |
| Tromethamine | clear solution | 6.51 |

same assay, conditions: 4 mL FaSSIF, 25° C., target 2 mg/mL, 0.5 h

| Molecule | Solubility at different time points, 0.5 h |
| --- | --- |
| NCCCC[C@H](N)C(=O)O [Lysine] | 2040 µg/mL |
| CNC[C@H](O)[C@@H](O)[C@H](O)[C@H](O)CO [Meglumine] | 2010 µg/mL |
| [K+] [Potassium] | 1700 µg/mL |
| Sodium | 1600 µg/mL |
| Tromethamine | 1990 µg/mL |

same assay, conditions: 4 mL FaSSIF, 25° C., target 2 mg/mL, 1 h

| Molecule | Solubility at different time points, 1 h |
| --- | --- |
| NCCCC[C@H](N)C(=O)O [Lysine] | 2060 µg/mL |
| CNC[C@H](O)[C@@H](O)[C@H](O)[C@H](O)CO [Meglumine] | 1980 µg/mL |
| [K+] [Potassium] | 2180 µg/mL |
| Sodium | 1730 µg/mL |
| Tromethamine | 1950 µg/mL |

same assay, conditions: 4 mL FaSSIF, 25° C., target 2 mg/mL, 2 h

| Molecule | Solubility at different time points, 2 h |
| --- | --- |
| NCCCC[C@H](N)C(=O)O [Lysine] | 2020 µg/mL |
| CNC[C@H](O)[C@@H](O)[C@H](O)[C@H](O)CO [Meglumine] | 2000 µg/mL |
| [K+] [Potassium] | 2190 µg/mL |
| Sodium | 1790 µg/mL |
| Tromethamine | 1960 µg/mL |

same assay, conditions: 4 mL FaSSIF, 25° C., target 2 mg/mL, 24 h

| Molecule | Solubility at different time points, 24 h |
| --- | --- |
| NCCCC[C@H](N)C(=O)O [Lysine] | 2090 µg/mL |
| CNC[C@H](O)[C@@H](O)[C@H](O)[C@H](O)CO [Meglumine] | 1960 µg/mL |
| [K+] [Potassium] | 2260 µg/mL |
| Sodium | 2010 µg/mL |
| Tromethamine | 2020 µg/mL |

same assay, conditions: 4 mL FaSSIF, 25° C., target 2 mg/mL, initial

| Molecule | Solubility at different time points, Initial |
| --- | --- |
| NCCCC[C@H](N)C(=O)O [Lysine] | 1370 µg/mL |
| CNC[C@H](O)[C@@H](O)[C@H](O)[C@H](O)CO [Meglumine] | 1320 µg/mL |
| [K+] [Potassium] | 490 µg/mL |
| Sodium | 410 µg/mL |
| Tromethamine | 1720 µg/mL |

test: Thermodynamic (equilibrium) solubility of PP-001 salts in FaSSIF; format: physicochemical; conditions: 3 mL FaSSIF, 37° C., pH tested after 24 hours
Description: As the solid was completely dissolved, add more sample to keep it saturated. […] Then at the time point 2 hrs, 0.5 mL of sample solution was transferred into 1.5 mL centrifugation tube and centrifuged at 12,000 RPM for 10 min. The supernatant was diluted by 50% ACN suitable and analyzed by HPLC. The pH was tested after 24 hours.

| Molecule | Final pH |
| --- | --- |
| Benzathine | 6.43 |
| Sodium | 6.49 |
| Tromethamine | 6.44 |

same assay, conditions: 3 mL FaSSIF, 37° C., saturated

| Molecule | Appearance after stirring for 24 hours |
| --- | --- |
| NCCCC[C@H](N)C(=O)O [Lysine] | Suspension |
| [K+] [Potassium] | Suspension |
| Benzathine | Suspension |
| Sodium | Suspension |
| Tromethamine | Suspension |

same assay, conditions: 3 mL FaSSIF, 37° C., saturated (target 10 mg/mL), time point 2 hrs, pH 6.4 to 6.5

| Molecule | Thermodynamic solubility |
| --- | --- |
| NCCCC[C@H](N)C(=O)O [Lysine] | 4650 µg/mL |
| CNC[C@H](O)[C@@H](O)[C@H](O)[C@H](O)CO [Meglumine] | 5690 µg/mL |
| [K+] [Potassium] | 2340 µg/mL |
| Benzathine | 30 µg/mL |
| Sodium | 1850 µg/mL |
| Tromethamine | 3700 µg/mL |

same assay, conditions: 3 mL FaSSIF, 37° C., saturated (target 10 mg/mL), time point 2 hrs, pH 6.4 to 6.5; listed as Tromethamine cation

| Molecule | Thermodynamic solubility |
| --- | --- |
| Tromethamine | 3700 µg/mL |

same assay, conditions: FaSSIF, comparison from Table 6

| Molecule | Increased solubility vs PP-001 free acid |
| --- | --- |
| [K+] [Potassium] | > 100 % increase |

test: Bioavailability / pharmacokinetics of PP-001 salts after oral administration to rats; conditions: rat, PO 4 mg/kg, mean n=3
Description: (§1) Suspensions were stirred continuously prior to dose.
A total of 27 male SD rats were used (n=3). 27 male SD rats assigned to the study were divided into 9 groups and a single type of formulated PP-001 salt was orally administered to each group of rats at dose level of 4 mg/kg (2 mL/kg dose volume). The diet was provided ad libitum throughout the in-life portion of the study, except for the fasting prior to dosing through 4 hours post dose. Drinking water was available daily ad libitum to all animals.
Plasma samples were collected via the jugular vein cannulation into EDTA-K3 tubes at 0.25, 0.5, 1, 2, 4, 8, and 24 hours post-dose administration. For analytical batch of single oral administration, plasma concentrations of salts of PP-001 were determined using LC-MS/MS with a lower limit of quantitation of 1 ng/mL.
(§2) The pharmacokinetic parameters of PP-001 salts were determined by non-compartmental analysis using WinNonlin Version 8.0 (Pharsight, Mountain View, CA). The area under the curve from the time of dosing to the last measurable concentration, AUC0-t, was calculated by the linear trapezoidal rule. The area under the concentration-time curve extrapolated to infinity, AUCinf, was calculated using a regression of the natural logarithm of the concentration values versus sampling time of the terminal slope (Lambda Z, k). This value is also used to calculate half-life (T1/2) as follows:
(§3) The bioavailability was calculated as follows:
(§4) [formula] • wherein PO is an oral administration and IV is an intravenous injection.

| Molecule | AUC0-∞ | AUCExtr | AUCinf/D | AUClast | Cmax | F, bioavailability (BA) in rats | MRT0-∞ | Tmax |
| --- | --- | --- | --- | --- | --- | --- | --- | --- |
| NCCCC[C@H](N)C(=O)O [Lysine] | 18430 ng·h/mL | 0.388% | 4607 kg·ng·h/mL/mg | 18361 ng·h/mL | 2663 ng/mL | 10.6% | 4.97 h | 4.00 h |

same assay, conditions: rat, PO 4 mg/kg, suspension in pH 6.8 phosphate buffer, mean n=3

| Molecule | T1/2 |
| --- | --- |
| NCCCC[C@H](N)C(=O)O [Lysine] | 2.85 h |

same assay, conditions: rat, in vivo, po

| Molecule | Increase in oral BA vs free acid in rats |
| --- | --- |
| CNC[C@H](O)[C@@H](O)[C@H](O)[C@H](O)CO [Meglumine] | 1.3 |
| [K+] [Potassium] | 0.7 |
| Benzathine | 0.7 |
| Sodium | 2.4 |
| Tromethamine | 1.6 |

same assay, conditions: rat, in vivo, po, 4 mg/kg

| Molecule | AUC0-∞ | AUCExtr | AUCinf/D | AUClast | Cmax | MRT0-∞ | Tmax | F, bioavailability (BA) in rats |
| --- | --- | --- | --- | --- | --- | --- | --- | --- |
| CNC[C@H](O)[C@@H](O)[C@H](O)[C@H](O)CO [Meglumine] | 17083 ng·h/mL | 0.488% | 4271 kg·ng·h/mL/mg | 16995 ng·h/mL | 2217 ng/mL | 4.83 h | 3.00 h |  |
| [K+] [Potassium] | 10112 ng·h/mL | 0.525% | 2528 kg·ng·h/mL/mg | 10049 ng·h/mL | 1144 ng/mL | 5.31 h | 4.00 h | 5.8% |
| Benzathine | 9593 ng·h/mL | 0.298% | 2398 kg·ng·h/mL/mg | 9559 ng·h/mL | 1495 ng/mL | 4.81 h | 3.33 h | 5.5% |
| Sodium | 32873 ng·h/mL | 0.743% | 8218 kg·ng·h/mL/mg | 32626 ng·h/mL | 6147 ng/mL | 4.76 h | 2.33 h | 18.8% |
| Tromethamine | 21874 ng·h/mL | 0.930% | 5469 kg·ng·h/mL/mg | 21665 ng·h/mL | 2787 ng/mL | 5.38 h | 4.00 h | 12.5% |

same assay, conditions: rat, in vivo, po, 4 mg/kg, pH 6.8

| Molecule | T1/2 |
| --- | --- |
| CNC[C@H](O)[C@@H](O)[C@H](O)[C@H](O)CO [Meglumine] | 3.02 h |
| [K+] [Potassium] | 2.96 h |
| Benzathine | 2.70 h |
| Sodium | 3.34 h |
| Tromethamine | 3.39 h |

same assay, conditions: rat, oral, ratio to PP-001 free acid

| Molecule | Increase in oral BA vs free acid in rats |
| --- | --- |
| NCCCC[C@H](N)C(=O)O [Lysine] | 1.4 |

test: in vivo; conditions: dog
Description: as §1
A total of 6 male beagle dogs were used (n=3). 6 male dogs assigned to the study were divided into 2 periods with 6 dogs per period and two dosing cycles separated by a 7-day washout period. The diet was provided ad libitum throughout the in-life portion of the study, except for the fasting prior to dosing through 4 hours post dose. Drinking water was available daily ad libitum to all animals. Formulated PP-001 salts were administered to male beagle dogs by oral administration at 4 mg/kg with dosed volume at 2 mL/kg.
Plasma samples were collected via the jugular vein cannulation into EDTA-K3 tubes at 0.25, 0.5, 1, 2, 4, 8, and 24 hours post-dose administration. For analytical batch of single oral administration, plasma concentrations of salts of PP-001 were determined using LC-MS/MS with a lower limit of quantitation of 10 ng/mL.
as §2, §3, §4

| Molecule | Increase in oral BA vs free acid in dogs |
| --- | --- |
| [K+] [Potassium] | 4.0 |
| Sodium | 2.6 |
| Tromethamine | 2.4 |

same assay, conditions: dog, po

| Molecule | Increased bioavailability in dogs vs PP-001 free acid |
| --- | --- |
| [K+] [Potassium] | > 400 % increase |

same assay, conditions: dog, po, 4 mg/kg

| Molecule | AUC0-∞ | AUCExtr | AUCinf/D | AUClast | Cmax | MRT0-∞ | T1/2 | Tmax | F, bioavailability (BA) in dogs |
| --- | --- | --- | --- | --- | --- | --- | --- | --- | --- |
| [K+] [Potassium] | 180263 ng·h/mL | 1.59% | 45066 kg·ng·h/mL/mg | 177228 ng·h/mL | 33967 ng/mL | 4.34 h | 4.15 h | 1.17 h |  |
| Sodium | 116660 ng·h/mL | 2.16% | 29165 kg·ng·h/mL/mg | 114152 ng·h/mL | 16867 ng/mL | 5.28 h | 4.24 h | 3.00 h | 59.6% |
| Tromethamine | 106528 ng·h/mL | 2.03% | 26632 kg·ng·h/mL/mg | 104381 ng·h/mL | 20467 ng/mL | 5.38 h | 4.13 h | 2.67 h | 54.4% |

Source: patent US20260209200A1, “SALTS OF A DIHYDROOROTATE DEHYDROGENASE (DHOD) INHIBITOR” (priority 2022, published 2026)
